Like-named read-outs stand apart in the source and are kept apart here.
Experiments:
S. aureus DNA gyrase = target: T1, S. aureus DNA gyrase (Staphylococcus aureus, UniProt P20831); assay: biochemical; conditions: supercoiling inhibition; mean of two independent measurements ± SD
T1 construct: purchased Inspiralis (Norwich, UK)
Procedure: (§1) To determine the IC50 values of the compounds for S. aureus and E. coli, a DNA gyrase supercoiling high-throughput plate assay and a topoIV relaxation high-throughput plate assay were performed. Assay kits and black streptavidin-coated 96-well microtiter plates are available from Inspiralis (Norwich, UK). For pre-screening, an inhibitor concentration of 100 μM was used. […] A nonlinear regression-based fit of the inhibition curves was used, with the log [inhibitor] versus slope of the reaction variables (four parameters) and a symmetric equation. […] To determine IC50 values, two independent repetitions were performed and the average was calculated.

S. aureus topoIV = target: T2, S. aureus topoIV (Staphylococcus aureus, UniProt P0C1U9); assay: biochemical; conditions: relaxation inhibition; mean of two independent measurements ± SD
T2 construct: purchased Inspiralis (Norwich, UK)
T2 sequence (P0C1U9 whole entry): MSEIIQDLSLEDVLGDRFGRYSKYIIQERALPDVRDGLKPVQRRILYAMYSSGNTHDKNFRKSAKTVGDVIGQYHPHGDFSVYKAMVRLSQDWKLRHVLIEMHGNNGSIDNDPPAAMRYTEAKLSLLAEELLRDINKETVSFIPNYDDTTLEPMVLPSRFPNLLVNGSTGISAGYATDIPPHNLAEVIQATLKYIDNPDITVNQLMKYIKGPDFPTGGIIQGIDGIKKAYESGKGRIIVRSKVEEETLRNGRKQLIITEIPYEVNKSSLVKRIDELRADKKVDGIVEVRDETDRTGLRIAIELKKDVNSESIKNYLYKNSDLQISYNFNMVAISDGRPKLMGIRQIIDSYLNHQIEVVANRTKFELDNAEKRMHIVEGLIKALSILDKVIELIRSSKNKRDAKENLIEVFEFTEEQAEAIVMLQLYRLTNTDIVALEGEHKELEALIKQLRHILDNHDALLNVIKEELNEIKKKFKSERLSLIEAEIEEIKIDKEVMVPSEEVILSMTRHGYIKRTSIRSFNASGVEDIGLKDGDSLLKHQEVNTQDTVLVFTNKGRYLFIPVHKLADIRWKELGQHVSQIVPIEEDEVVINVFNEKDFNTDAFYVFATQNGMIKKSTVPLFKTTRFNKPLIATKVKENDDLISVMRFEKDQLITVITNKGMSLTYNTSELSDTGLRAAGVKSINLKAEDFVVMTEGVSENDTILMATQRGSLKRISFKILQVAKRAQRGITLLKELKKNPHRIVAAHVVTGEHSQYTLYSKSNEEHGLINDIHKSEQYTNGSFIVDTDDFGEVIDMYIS
T2 sequence (P0C1S7 whole entry partner): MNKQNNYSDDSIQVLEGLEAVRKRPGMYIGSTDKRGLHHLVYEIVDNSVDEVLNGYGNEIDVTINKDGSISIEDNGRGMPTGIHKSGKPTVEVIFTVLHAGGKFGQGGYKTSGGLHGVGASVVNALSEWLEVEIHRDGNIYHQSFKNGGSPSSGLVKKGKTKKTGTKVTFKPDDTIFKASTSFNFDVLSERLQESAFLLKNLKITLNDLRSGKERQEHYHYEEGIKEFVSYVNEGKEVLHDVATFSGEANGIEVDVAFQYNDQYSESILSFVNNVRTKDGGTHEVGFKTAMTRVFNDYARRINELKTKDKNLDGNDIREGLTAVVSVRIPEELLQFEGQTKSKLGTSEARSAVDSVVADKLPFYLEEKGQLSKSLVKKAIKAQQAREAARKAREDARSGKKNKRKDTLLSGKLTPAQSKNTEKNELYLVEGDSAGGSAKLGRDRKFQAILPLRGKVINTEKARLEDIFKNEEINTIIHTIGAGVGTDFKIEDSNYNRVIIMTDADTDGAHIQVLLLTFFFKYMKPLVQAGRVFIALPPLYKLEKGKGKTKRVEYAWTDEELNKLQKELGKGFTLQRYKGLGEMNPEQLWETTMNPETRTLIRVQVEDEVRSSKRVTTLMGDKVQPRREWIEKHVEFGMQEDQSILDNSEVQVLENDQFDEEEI
Procedure: as §1

E. coli topoIV = target: T3, E. coli topoIV (Escherichia coli, UniProt P0AFI2); assay: topoIV relaxation inhibition assay (high-throughput plate assay); type: biochemical
T3 construct: purchased Inspiralis (Norwich, UK)
T3 sequence (P20083 whole entry): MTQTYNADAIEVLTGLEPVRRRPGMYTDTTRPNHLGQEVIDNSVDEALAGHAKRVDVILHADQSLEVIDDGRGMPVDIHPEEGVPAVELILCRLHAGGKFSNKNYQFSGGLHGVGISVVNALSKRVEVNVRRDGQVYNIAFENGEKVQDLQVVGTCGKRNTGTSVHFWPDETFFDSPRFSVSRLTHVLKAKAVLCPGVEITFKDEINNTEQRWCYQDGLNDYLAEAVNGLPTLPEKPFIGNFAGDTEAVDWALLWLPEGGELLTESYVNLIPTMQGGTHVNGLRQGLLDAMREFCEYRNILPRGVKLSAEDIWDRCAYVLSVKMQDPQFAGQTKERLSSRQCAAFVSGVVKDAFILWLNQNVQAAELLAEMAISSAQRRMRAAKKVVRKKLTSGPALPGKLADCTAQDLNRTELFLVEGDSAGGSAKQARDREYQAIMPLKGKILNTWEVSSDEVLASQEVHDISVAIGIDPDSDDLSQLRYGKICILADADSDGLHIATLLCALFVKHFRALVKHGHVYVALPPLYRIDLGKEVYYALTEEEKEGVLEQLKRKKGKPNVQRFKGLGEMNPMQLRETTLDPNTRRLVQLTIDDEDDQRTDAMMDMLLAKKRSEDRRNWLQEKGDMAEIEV
T3 sequence (P0AFI2 whole entry): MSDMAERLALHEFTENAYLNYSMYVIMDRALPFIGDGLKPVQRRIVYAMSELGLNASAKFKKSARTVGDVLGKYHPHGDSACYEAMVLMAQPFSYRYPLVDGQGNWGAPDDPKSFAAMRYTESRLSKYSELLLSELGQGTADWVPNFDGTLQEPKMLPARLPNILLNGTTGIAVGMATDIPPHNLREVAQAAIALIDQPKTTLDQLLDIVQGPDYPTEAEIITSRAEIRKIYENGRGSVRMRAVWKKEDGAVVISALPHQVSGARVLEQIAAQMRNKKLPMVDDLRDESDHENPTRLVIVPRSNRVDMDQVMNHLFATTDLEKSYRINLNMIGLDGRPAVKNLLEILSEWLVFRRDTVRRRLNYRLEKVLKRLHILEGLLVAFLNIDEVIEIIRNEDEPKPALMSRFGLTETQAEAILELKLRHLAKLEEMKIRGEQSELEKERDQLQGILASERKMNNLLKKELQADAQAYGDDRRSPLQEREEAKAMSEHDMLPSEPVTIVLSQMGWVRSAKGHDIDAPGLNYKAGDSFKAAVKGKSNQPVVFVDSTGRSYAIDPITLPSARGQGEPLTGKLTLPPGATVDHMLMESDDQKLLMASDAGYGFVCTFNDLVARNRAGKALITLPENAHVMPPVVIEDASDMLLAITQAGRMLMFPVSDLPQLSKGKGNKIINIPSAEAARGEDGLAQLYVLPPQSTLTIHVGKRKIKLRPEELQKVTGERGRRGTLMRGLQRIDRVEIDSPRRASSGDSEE
Procedure: as §1

A. baumannii = assay: MIC, broth microdilution; type: cell-based; conditions: Acinetobacter baumannii
Procedure: (§2) For the determination of minimum inhibitory concentrations (MIC), the broth microdilution method was used in 96-well plate format, according to the guidelines of the Clinical and Laboratory Standards Institute and the recommendations of the European Committee on Antimicrobial Susceptibility Testing (EUCAST). The dilutions of the bacterial suspension of the specific bacterial strain, corresponding to the 0.5 McFarland turbidity standard, were prepared with […] Mueller–Hinton broth with TES (Thermo Fisher Scientific) to obtain an end inoculum of 10^5 CFU/mL. The compounds were dissolved in DMSO and mixed with the inoculum. […] The MIC was determined as the lowest concentration of antibiotic that prevented visible bacterial growth. Tetracycline was used as a positive control on each test plate.

E. coli (ATCC 25922) = assay: MIC, broth microdilution; type: cell-based; conditions: Escherichia coli
Procedure: as §2

E. coli D22 = assay: MIC, broth microdilution; type: cell-based; conditions: Escherichia coli
Procedure: as §2

E. coli ESBL QA-11.3 = assay: MIC, broth microdilution; type: cell-based; conditions: Escherichia coli
Procedure: as §2

E. coli N43 (CGSC# 5583) = assay: MIC, broth microdilution; type: cell-based; conditions: Escherichia coli
Procedure: as §2

E. faecalis RDK 057 = assay: MIC, broth microdilution; type: cell-based
Procedure: as §2

K. pneumoniae = assay: MIC, broth microdilution; type: cell-based; conditions: Klebsiella pneumoniae
Procedure: as §2

P. aeruginosa RDK 184 = assay: MIC, broth microdilution; type: cell-based; conditions: Pseudomonas aeruginosa
Procedure: as §2

S. aureus (ATCC 29213) = assay: MIC, broth microdilution; type: cell-based; conditions: Staphylococcus aureus, ATCC29213
Procedure: as §2

VRE = assay: MIC, broth microdilution; type: cell-based; conditions: Enterococcus
Procedure: as §2

MRSA (QA-11.2) = assay: MIC, broth microdilution; type: cell-based, S. aureus; conditions: Staphylococcus aureus
Procedure: as §2

MRSA (QA-11.7) = assay: MIC, broth microdilution; type: cell-based, S. aureus; conditions: Staphylococcus aureus
Procedure: as §2

MRSA(QA-12.1) = assay: MIC, broth microdilution; type: cell-based, S. aureus; conditions: Staphylococcus aureus
Procedure: as §2

[1] = Metabolic activity assessment (cytotoxicity), CellTiter 96 Aqueous One; type: cell-based; conditions: human, 72 h treatment, means of three independent measurements ± SD
Procedure: HUVEC (ATCC® CRL-1730™) and HepG2 (ATCC® HB-8065™) cell lines were cultured in Dulbecco’s Modified Eagle Medium (DMEM; Sigma-Aldrich, St. Louis, MO, USA) supplemented with 10% heat-deactivated FBS (Gibco, Grand Island, NE, USA), 2 mM L-glutamine, 100 U/mL penicillin, 100 μg/mL streptomycin (all from Sigma-Aldrich, St. Louis, MO, USA) in a humidified chamber at 37 °C and 5% CO2. The experiments were carried out on passages 4–7 for both cell lines. The tested compounds were dissolved in DMSO and further diluted in culture medium to a desired final concentration. The cells were then seeded into 96-well plates at 5 × 10^4 cells/mL (100 μL/well) or 8 × 10^4 cells/mL (100 μL/well) for HUVEC and HepG2, respectively. The cells were then incubated for 24 h to allow attachment onto the wells. The cells were treated with 1 μM and 50 μM of each compound of interest, or the corresponding vehicle as control. […] Their metabolic activity was assessed after 72 h treatment using a CellTiter 96 Aqueous One Solution Cell Proliferation Assay (Promega, Madison, WI, USA), in accordance with the manufacturer’s instructions. The absorbance was measured at 492 nm on an automated microplate reader, Tecan Spark (Tecan Group Ltd., Männedorf, CH, Switzerland). Data are presented as the percentage of metabolic activity of control cells stimulated with vehicle, or as an IC50 value (mean ± SD) from three independent experiments, each conducted in triplicate (for screening) or duplicate (for IC50 determination). IC50 values were calculated using a non-linear regression model and with Graph Pad Prism 9 software.

[2] = Table S3, read-out: MIC (μM) A. baumannii
[3] = ATCC25922, Table S3, read-out: MIC (μM) E. coli (ATCC 25922)
[4] = ATCC25922, read-out: MIC E. coli (ATCC 25922)
[5] = D22, lpxC mutation that increases membrane permeability, read-out: MIC E. coli D22
[6] = ESBLQA11.3, Table S3, read-out: MIC (μM) E. coli ESBL QA:11.3
[7] = ESBLQA11.3, read-out: MIC E. coli ESBL QA-11.3
[8] = read-out: MIC E. coli N43 (CGSC# 5583)
[9] = Enterococcus faecalis, RDK057; Table S3; read-out: MIC (μM) E. faecalis DRK 057
[10] = Enterococcus faecalis, RDK057; read-out: MIC E. faecalis RDK 057
[11] = Table S3, read-out: MIC (μM) K. pneumoniae
[12] = RDK184, 20 h, Table S3, read-out: MIC (μM) P. aeruginosa RDK 184
[13] = RDK184, read-out: MIC P. aeruginosa RDK 184
[14] = Table S3, read-out: MIC (μM) S. aureus (ATCC 29213)
[15] = read-out: MIC S. aureus (ATCC 29213)
[16] = Table S3, read-out: MIC (μM) VRE
[17] = Table S3, read-out: MIC (μM) MRSA (QA-11.2)
[18] = Table S3, read-out: MIC (μM) MRSA (QA-11.7)
[19] = strain resistant to cefoxitin, ciprofloxacin, clindamycin, erythromycin, tetracycline, thiamulin, trimethoprim, read-out: MIC MRSA (QA-11.7)
[20] = Table S3, read-out: MIC (μM) MRSA(QA-12.1)
[21] = strain resistant to cefoxitin, gentamicin, kanamycin, rifampicin, streptomycin, sulfamethoxazole, tetracycline, read-out: MIC MRSA(QA-12.1)
[22] = D22, Table S3, lpxC mutation, read-out: MIC (μM) E. coli D22

T1 sequence (P20831 whole entry): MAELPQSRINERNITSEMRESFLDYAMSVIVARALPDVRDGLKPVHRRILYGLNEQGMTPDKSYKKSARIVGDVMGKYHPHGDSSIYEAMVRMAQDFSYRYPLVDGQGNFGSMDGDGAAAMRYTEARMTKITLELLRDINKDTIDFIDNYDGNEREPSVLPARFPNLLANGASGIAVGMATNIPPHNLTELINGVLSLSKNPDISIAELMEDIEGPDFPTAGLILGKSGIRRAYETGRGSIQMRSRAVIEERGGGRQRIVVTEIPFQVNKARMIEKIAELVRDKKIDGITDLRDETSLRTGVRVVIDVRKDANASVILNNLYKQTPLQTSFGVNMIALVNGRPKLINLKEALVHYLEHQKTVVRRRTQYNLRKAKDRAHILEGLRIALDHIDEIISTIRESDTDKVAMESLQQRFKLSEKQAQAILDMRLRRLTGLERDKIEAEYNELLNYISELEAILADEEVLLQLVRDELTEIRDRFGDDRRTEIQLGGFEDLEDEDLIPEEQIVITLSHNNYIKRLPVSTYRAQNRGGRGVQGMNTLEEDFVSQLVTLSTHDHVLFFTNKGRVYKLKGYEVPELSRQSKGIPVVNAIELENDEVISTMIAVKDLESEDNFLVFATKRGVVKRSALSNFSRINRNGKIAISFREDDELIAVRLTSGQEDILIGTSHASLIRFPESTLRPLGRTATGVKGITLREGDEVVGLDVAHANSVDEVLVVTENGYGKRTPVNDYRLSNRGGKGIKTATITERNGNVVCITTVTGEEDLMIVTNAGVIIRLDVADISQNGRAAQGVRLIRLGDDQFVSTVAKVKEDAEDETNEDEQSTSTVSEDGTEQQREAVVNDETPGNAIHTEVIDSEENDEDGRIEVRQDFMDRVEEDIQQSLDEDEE
T1 sequence (P0A0K8 whole entry partner): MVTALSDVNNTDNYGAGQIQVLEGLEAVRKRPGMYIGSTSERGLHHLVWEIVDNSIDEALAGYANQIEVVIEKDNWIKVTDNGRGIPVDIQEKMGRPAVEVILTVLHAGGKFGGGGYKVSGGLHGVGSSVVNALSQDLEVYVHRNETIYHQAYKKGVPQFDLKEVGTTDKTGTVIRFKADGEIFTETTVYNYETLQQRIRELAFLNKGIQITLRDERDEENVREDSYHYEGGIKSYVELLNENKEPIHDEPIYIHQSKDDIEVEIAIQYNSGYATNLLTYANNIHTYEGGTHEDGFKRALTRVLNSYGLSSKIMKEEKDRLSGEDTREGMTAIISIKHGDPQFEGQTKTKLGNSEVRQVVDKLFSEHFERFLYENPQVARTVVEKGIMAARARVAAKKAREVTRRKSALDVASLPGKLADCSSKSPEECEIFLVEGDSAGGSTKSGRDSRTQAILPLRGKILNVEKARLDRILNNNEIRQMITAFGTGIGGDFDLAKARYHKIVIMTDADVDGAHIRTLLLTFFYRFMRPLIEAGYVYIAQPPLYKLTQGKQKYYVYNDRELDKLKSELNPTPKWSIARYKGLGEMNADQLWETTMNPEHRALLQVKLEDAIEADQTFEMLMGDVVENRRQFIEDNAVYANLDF

SMILES	IC50 (S. aureus DNA gyrase) [µM]	IC50 (S. aureus topoIV) [µM]	IC50 (E. coli topoIV) [µM]	MIC (A. baumannii; [2]) [µM]	MIC (A. baumannii; read-out: MIC A. baumannii) [µg/mL]	MIC (E. coli (ATCC 25922); [4]) [µg/mL]	MIC (E. coli D22; [5]) [µg/mL]	MIC (E. coli ESBL QA-11.3; [7]) [µg/mL]	MIC (E. coli N43 (CGSC# 5583); read-out: MIC (μM) E. coli N43) [µM]	MIC (E. coli N43 (CGSC# 5583); [8]) [µg/mL]	MIC (K. pneumoniae; read-out: MIC K. pneumoniae) [µg/mL]	MIC (P. aeruginosa RDK 184; [12]) [µM]	MIC (P. aeruginosa RDK 184; [13]) [µg/mL]	MIC (S. aureus (ATCC 29213); [14]) [µM]	MIC (S. aureus (ATCC 29213); [15]) [µg/mL]	MIC (VRE; [16]) [µM]	MIC (VRE; read-out: MIC VRE) [µg/mL]	MIC (MRSA (QA-11.2); [17]) [µM]	MIC (MRSA (QA-11.2); read-out: MIC MRSA (QA-11.2)) [µg/mL]	MIC (MRSA (QA-11.7); [18]) [µM]	other results
COc1ccc2nccc(C(O)CC3CCC(NCc4ccc(C)cc4)CC3)c2n1 (stereo not drawn) [Compound 8, 1-(6-Methoxy-1,5-naphthyridin-4-yl)-2-(4-((4-methylbenzyl)amino)cyclohexyl)ethan-1-ol]	0.077 ± 0.01	2.5 ± 0.252	0.083	5.12	2	8	1	8	2.56	1	16	328	128	0.161	0.063	0.32	0.125	0.082	0.032	0.32	MIC (E. coli (ATCC 25922); [3]): 20.5 µM; MIC (E. coli D22; D22, read-out: MIC (μM) E. coli D22): 2.56 µM; MIC (E. coli ESBL QA-11.3; [6]): 20.5 µM; MIC (E. faecalis RDK 057; [9]): 0.64 µM; MIC (E. faecalis RDK 057; [10]): 0.25 µg/mL; MIC (K. pneumoniae; [11]): 41 µM; MIC (MRSA (QA-11.7); [19]): 0.125 µg/mL; MIC (MRSA(QA-12.1); [20]): 0.161 µM; MIC (MRSA(QA-12.1); [21]): 0.063 µg/mL; IC50 at 72 h ([1]; HUVEC cells (ATCC CRL-1730)): 33.1 ± 6.13 µM; IC50 at 72 h ([1]; HepG2 cells (ATCC HB-8065)): 22.3 ± 0.36 µM
COc1ccc2nccc(OCC3CCC(NCc4ccc(C)cc4)CO3)c2n1 (stereo not drawn) [Compound 7, 6-(((6-Methoxy-1,5-naphthyridin-4-yl)oxy)methyl)-N-(4-methylbenzyl)tetrahydro-2H-pyran-3-amine]	0.194 ± 0.018	> 100	1.53 ± 0.043	164	64	> 128	32	> 128	10.2	4	> 128	> 328	> 128	1.28	0.5	5.12	2	0.64	0.25	2.56	MIC (E. coli (ATCC 25922); ATCC25922, 20 h, Table S3, read-out: MIC (μM) E. coli (ATCC 25922)): > 328 µM; MIC (E. coli D22; [22]): 81.9 µM; MIC (E. coli ESBL QA-11.3; ESBLQA11.3, 20 h, Table S3, read-out: MIC (μM) E. coli ESBL QA:11.3): > 328 µM; MIC (E. faecalis RDK 057; Enterococcus faecalis, RDK057, read-out: MIC (μM) E. faecalis DRK 057): 10.2 µM; MIC (E. faecalis RDK 057; [10]): 4 µg/mL; MIC (K. pneumoniae; 20 h, Table S3, read-out: MIC (μM) K. pneumoniae): > 328 µM; MIC (MRSA (QA-11.7); [19]): 1 µg/mL; MIC (MRSA(QA-12.1); [20]): 1.28 µM; MIC (MRSA(QA-12.1); [21]): 0.5 µg/mL; IC50 at 72 h ([1]; HUVEC cells (ATCC CRL-1730)): > 50 µM; IC50 at 72 h ([1]; HepG2 cells (ATCC HB-8065)): > 50 µM
COc1ccc2nccc(CCN3CCC(NCc4ccc(C)cc4)CC3)c2n1 [Compound 5, 1-(2-(6-Methoxy-1,5-naphthyridin-4-yl)ethyl)-N-(4-methylbenzyl)piperidin-4-amine]	0.145 ± 0.014	1.23 ± 0.258	0.089 ± 0.019	2.56	1	2	1	4	0.32	0.125	16	> 328	> 128	0.082	0.032	0.082	0.032	0.082	0.032	0.041	MIC (E. coli (ATCC 25922); [3]): 5.12 µM; MIC (E. coli D22; [22]): 2.56 µM; MIC (E. coli ESBL QA-11.3; [6]): 10.2 µM; MIC (E. faecalis RDK 057; Enterococcus faecalis, RDK057, read-out: MIC E. faecalis RDK 057): 0.125 µg/mL; MIC (E. faecalis RDK 057; [9]): 0.32 µM; MIC (K. pneumoniae; [11]): 41 µM; MIC (MRSA (QA-11.7); [19]): 0.016 µg/mL; MIC (MRSA(QA-12.1); [20]): 0.041 µM; MIC (MRSA(QA-12.1); [21]): 0.016 µg/mL; IC50 at 72 h ([1]; HUVEC cells (ATCC CRL-1730)): 36.5 ± 9.82 µM; IC50 at 72 h ([1]; HepG2 cells (ATCC HB-8065)): 20 ± 3.01 µM

— article PMC10215804, “Exploring Alternative Pathways to Target Bacterial Type II Topoisomerases Using NBTI Antibacterials: Beyond Halogen-Bonding Interactions” (Antibiotics, 2023)
